Data as given in PubChem BioAssay AID1963839 (Molecular Pharmacology Branch, DTP, NCI, 2024).

System: 817829-284-R-J1-PDC complex spheroid viability
Assay: Anticancer human tumor 817829-284-R-J1-PDC patient-derived colon adenocarcinoma cell line growth inhibition [POLQ]
Details: for IC50: curve of first compound; for viability, T/C: stronger effect = lower value
How it was run: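 Growth inhibition in 3D: complex spheroids (tumor PDC, HUVEC, MSC) treated with POLQ inhibitor combinations; where Cmax unknown, highest tested concentration 10 microM, except SN-38 at 1 microM.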

[1] = second compound 0.0316 µM, first compound 0.0316 µM
[2] = second compound 0.0316 µM, first compound 0.1 µM
[3] = second compound 0.0316 µM, first compound 0.316 µM
[4] = second compound 0.0316 µM, first compound 1 µM
[5] = second compound 0.0316 µM, first compound 3.16 µM
[6] = second compound 0.0316 µM, first compound 10 µM
[7] = second compound 0.1 µM, first compound 0.0316 µM
[8] = second compound 0.1 µM, first compound 0.1 µM
[9] = second compound 0.1 µM, first compound 0.316 µM
[10] = second compound 0.1 µM, first compound 1 µM
[11] = second compound 0.1 µM, first compound 3.16 µM
[12] = second compound 0.1 µM, first compound 10 µM
[13] = second compound 0.316 µM, first compound 0.0316 µM
[14] = second compound 0.316 µM, first compound 0.1 µM
[15] = second compound 0.316 µM, first compound 0.316 µM
[16] = second compound 0.316 µM, first compound 1 µM
[17] = second compound 0.316 µM, first compound 3.16 µM
[18] = second compound 0.316 µM, first compound 10 µM
[19] = second compound 1 µM, first compound 0.0316 µM
[20] = second compound 1 µM, first compound 0.1 µM
[21] = second compound 1 µM, first compound 0.316 µM
[22] = second compound 1 µM, first compound 1 µM
[23] = second compound 1 µM, first compound 3.16 µM
[24] = second compound 1 µM, first compound 10 µM
[25] = second compound 3.16 µM, first compound 0.0316 µM
[26] = second compound 3.16 µM, first compound 0.1 µM
[27] = second compound 3.16 µM, first compound 0.316 µM
[28] = second compound 3.16 µM, first compound 1 µM
[29] = second compound 3.16 µM, first compound 3.16 µM
[30] = second compound 3.16 µM, first compound 10 µM
[31] = second compound 10 µM, first compound 0.0316 µM
[32] = second compound 10 µM, first compound 0.1 µM
[33] = second compound 10 µM, first compound 0.316 µM
[34] = second compound 10 µM, first compound 1 µM
[35] = second compound 10 µM, first compound 3.16 µM
[36] = second compound 10 µM, first compound 10 µM
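Note: spheroids exposed to compounds for 7 days.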
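Throughout, for viability, T/C: 100% = DMSO vehicle-treated spheroids.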

O=c1[nH]cc(F)c(=O)[nH]1 + Cc1cccc(N(C)C(=O)C2C(O)CCN2c2nc(C)cc(C(F)(F)F)c2C#N)c1
IC50 (second compound 0.0316 µM): 1.98 µM
IC50 (second compound 0.1 µM): 3.12 µM
IC50 (second compound 0.316 µM): > 10 µM
IC50 (second compound 1 µM): 3.1 µM
IC50 (second compound 3.16 µM): 3.65 µM
IC50 (second compound 10 µM): 2.53 µM
viability, T/C [1]: 98.2%
viability, T/C [2]: 119%
viability, T/C [3]: 68.2%
viability, T/C [4]: 72.5%
viability, T/C [5]: 34.8%
viability, T/C [6]: 38.9%
viability, T/C [7]: 91.4%
viability, T/C [8]: 126%
viability, T/C [9]: 110%
viability, T/C [10]: 75.4%
viability, T/C [11]: 55.9%
viability, T/C [12]: 42.1%
viability, T/C [13]: 92.1%
viability, T/C [14]: 98%
viability, T/C [15]: 106%
viability, T/C [16]: 74.4%
viability, T/C [17]: 55.4%
viability, T/C [18]: 45.8%
viability, T/C [19]: 72.5%
viability, T/C [20]: 118%
viability, T/C [21]: 98.8%
viability, T/C [22]: 75.1%
viability, T/C [23]: 52.7%
viability, T/C [24]: 39.9%
viability, T/C [25]: 89.9%
viability, T/C [26]: 112%
viability, T/C [27]: 102%
viability, T/C [28]: 77%
viability, T/C [29]: 54.7%
viability, T/C [30]: 36.3%
viability, T/C [31]: 101%
viability, T/C [32]: 91.8%
viability, T/C [33]: 94.1%
viability, T/C [34]: 60.4%
viability, T/C [35]: 52%
viability, T/C [36]: 42.6%

O=C(c1cc(Cc2n[nH]c(=O)c3ccccc23)ccc1F)N1CCN(C(=O)C2CC2)CC1 + COC1C(OC(N)=O)C(O)C(Oc2ccc3c(O)c(NC(=O)c4ccc(O)c(CC=C(C)C)c4)c(=O)oc3c2C)OC1(C)C
IC50 (second compound 0.0316 µM): 2.18 µM
IC50 (second compound 0.1 µM): 4.58 µM
IC50 (second compound 0.316 µM): 3.28 µM
IC50 (second compound 1 µM): 4.29 µM
IC50 (second compound 3.16 µM): 3.83 µM
IC50 (second compound 10 µM): 4.49 µM
viability, T/C [1]: 71.5%
viability, T/C [2]: 109%
viability, T/C [3]: 88.3%
viability, T/C [4]: 61.2%
viability, T/C [5]: 49.8%
viability, T/C [6]: 33.7%
viability, T/C [7]: 94.9%
viability, T/C [8]: 86.5%
viability, T/C [9]: 83.7%
viability, T/C [10]: 68.2%
viability, T/C [11]: 68.7%
viability, T/C [12]: 25.8%
viability, T/C [13]: 105%
viability, T/C [14]: 98.4%
viability, T/C [15]: 85.7%
viability, T/C [16]: 90.1%
viability, T/C [17]: 50%
viability, T/C [18]: 32.2%
viability, T/C [19]: 88.3%
viability, T/C [20]: 99.9%
viability, T/C [21]: 81.4%
viability, T/C [22]: 75.7%
viability, T/C [23]: 61.2%
viability, T/C [24]: 24.3%
viability, T/C [25]: 114%
viability, T/C [26]: 92.5%
viability, T/C [27]: 75.2%
viability, T/C [28]: 70.3%
viability, T/C [29]: 63.2%
viability, T/C [30]: 30.2%
viability, T/C [31]: 90.5%
viability, T/C [32]: 95.3%
viability, T/C [33]: 68.8%
viability, T/C [34]: 102%
viability, T/C [35]: 60.7%
viability, T/C [36]: 25.7%
